# Data reported in patent publication US20080119515A1, “Heterocyclic Kinase Inhibitors: Methods of Use and Synthesis” (priority 2003, published 2008).
# Target: T1, ZAP-70 (Homo sapiens, UniProt P43403)
# T1 sequence (P43403 1-619): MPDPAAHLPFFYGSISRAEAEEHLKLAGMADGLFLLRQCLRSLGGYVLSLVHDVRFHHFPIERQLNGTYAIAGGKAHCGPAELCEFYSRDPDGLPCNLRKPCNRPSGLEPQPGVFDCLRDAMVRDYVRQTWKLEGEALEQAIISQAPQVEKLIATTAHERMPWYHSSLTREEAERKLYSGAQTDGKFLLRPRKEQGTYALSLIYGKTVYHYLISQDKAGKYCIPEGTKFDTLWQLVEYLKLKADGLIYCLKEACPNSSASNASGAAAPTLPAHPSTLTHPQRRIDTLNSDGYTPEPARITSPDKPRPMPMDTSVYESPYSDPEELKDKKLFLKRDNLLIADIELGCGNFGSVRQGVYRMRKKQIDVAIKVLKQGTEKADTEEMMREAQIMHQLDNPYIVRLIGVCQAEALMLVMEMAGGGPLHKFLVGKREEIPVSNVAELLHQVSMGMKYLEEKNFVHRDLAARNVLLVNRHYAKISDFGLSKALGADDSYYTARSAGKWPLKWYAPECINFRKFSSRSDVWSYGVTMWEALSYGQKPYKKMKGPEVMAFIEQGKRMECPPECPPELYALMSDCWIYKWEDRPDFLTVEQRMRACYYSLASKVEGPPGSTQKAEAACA
# Assay: DELFIA assay (ZAP-70 kinase, phosphorylation of biotinylated poly(glu,tyr))
# Format: biochemical
# Conditions: ZAP-70 DELFIA, class symbols; read-out: Activity (IC50 in vitro)
# Experimental: Before initiation of kinase reactions, compounds were pre-incubated with ZAP-70. Pre-incubation reactions contained 62.5 mM Mops pH 7.0, 12.5 mM MgCl2, 12.5% glycerol, 3.1 nM ZAP-70, 62.5 nM biotinylated poly(glu,Tyr), 0.1 mg/ml BSA, 6.25% DMSO and […] compound in a total volume of […]. After a 10 minute room temperature incubation, 10 ml of 5 mM ATP was added to start the reaction. Reactions were incubated at room temperature for 30 minutes then terminated by addition of 5 ml 500 mM EDTA. The amount of phosphate transferred to biotinylated poly(glu,tyr) was measured using the Dissociation Enhanced Lanthanide Fluorescence Immuno-assay (DELFIA) from Perkin Elmer according to manufacturers protocol. Briefly, biotinylated […] was captured on streptavidin coated plates, washed twice, then incubated with Europium labeled-anti-phosphotyrosine antibody. Free antibody was removed with six washes, Europium was dissociated from the antibody, and Europium fluorescence was measured at using an excitation wavelength of 340 nm and an emission wavelength of 615 nm.
row,IC50 [µM],SMILES
1,> 10,CN(Cc1ccccc1Cl)c1cc(C(=O)N2CCC[C@H]2CN2CCCC2)c2cc(-c3ccc(C#N)cc3)ccc2n1 [Compound 211]
2,1 to 10,O=C(c1cc(N2CCCC2)nc2ccc(-c3ccc4c(c3)OCO4)cc12)N1CCC[C@H]1CN1CCCC1 [Compound 63]
3,> 10,N#Cc1ccc(-c2ccc3nc(N[C@H]4CCCc5ccccc54)cc(C(=O)N4CCC[C@H]4CN4CCCC4)c3c2)cc1 [Compound 206]
4,> 10,N#Cc1ccc(-c2ccc3nc(N4CCc5[nH]c6c(F)cccc6c5C4)cc(C(=O)N4CCC[C@H]4CN4CCCC4)c3c2)cc1 [Compound 215]
5,< 1,CN1CCC(N(C)c2cc(C(=O)N3CCC[C@H]3CN3CCCC3)c3cc(-c4ccc5c(c4)OCO5)ccc3n2)CC1 [Compound 60]
6,> 10,COC[C@@H]1CCCN1c1cc(C(=O)N2CCC[C@H]2CN2CCCC2)c2cc(-c3ccc4c(c3)OCO4)ccc2n1 [Compound 329]
7,> 10,CCCCCCc1cc(C(=O)N2CCC[C@H]2CN2CCCC2)cc(N(C)Cc2ccccc2)n1 [Compound 277]
8,< 1,CC(=O)c1ccc(-c2ccc3nc(NCc4ccc(C(F)(F)F)cc4)cc(C(=O)N4CCC[C@H]4CN4CCCC4)c3c2)s1 [Compound 299]
9,> 10,N#Cc1ccc(-c2ccc3nc(NCc4cccc(C(F)(F)F)c4)cc(C(=O)N4CCC[C@H]4CN4CCCC4)c3c2)cc1 [Compound 157]
10,> 10,N#Cc1ccc(-c2ccc3nc(N4CCc5ccccc5C4)cc(C(=O)N4CCC[C@H]4CN4CCCC4)c3c2)cc1 [Compound 153]
11,1 to 10,O=C(c1cc(NCc2ccc(C(F)(F)F)cc2)nc2ccc(-c3ccc(C(F)(F)F)cc3)cc12)N1CCC[C@H]1CN1CCCC1 [Compound 296]
12,> 10,O=C(c1cc(NCc2ccc(C(F)(F)F)cc2)nc2ccc(-c3ccccc3Cl)cc12)N1CCC[C@H]1CN1CCCC1 [Compound 347]
13,1 to 10,O=C(c1cc(NCc2ccc(C(F)(F)F)cc2)nc2ccc(/C=C/c3ccccc3)cc12)N1CCC[C@H]1CN1CCCC1 [Compound 290]
14,< 1,O=C(c1cc(CC(O)c2ccc(C(F)(F)F)cc2)nc2ccc(-c3ccc4c(c3)OCO4)cc12)N1CCC[C@H]1CN1CCCC1 (some centres unmarked) [Compound 436]
15,< 1,CC(Nc1cc(C(=O)N2CCC[C@H]2CN2CCCC2)c2cc(-c3ccc4c(c3)OCO4)ccc2n1)c1ccc(F)cc1 (some centres unmarked) [Compound 117]
16,> 10,N#Cc1ccc(-c2ccc3nc(NCc4ccc(F)cc4)cc(C(=O)N4CCC[C@H]4CN4CCCC4)c3c2)cc1 [Compound 159]
17,1 to 10,O=C(Nc1ccccc1)c1cc(C(=O)N2CCC[C@H]2CN2CCCC2)c2cc(-c3ccc4c(c3)OCO4)ccc2n1 [Compound 144]
18,1 to 10,O=C(c1cc(NCc2ccc(C(F)(F)F)cc2)nc2ccc(-c3ccc(OC(F)(F)F)cc3)cc12)N1CCC[C@H]1CN1CCCC1 [Compound 309]
19,> 10,O=C(c1cc(NCc2ccc(C(F)(F)F)cc2)nc2ccc(-c3ccc(-c4cnco4)s3)cc12)N1CCC[C@H]1CN1CCCC1 [Compound 355]
20,1 to 10,CN(CCO)c1cc(C(=O)N2CCC[C@H]2CN2CCCC2)c2cc(-c3ccc4c(c3)OCO4)ccc2n1 [Compound 74]
21,1 to 10,CS(=O)(=O)c1ccc(-c2ccc3c(C(=O)N4CCC[C@H]4CN4CCCC4)cc(NCc4ccc(C(F)(F)F)cc4)nc3c2)cc1 [Compound 123]
22,> 10,N#Cc1ccc(-c2ccc3nc(NCCc4cccc(F)c4)cc(C(=O)N4CCC[C@H]4CN4CCCC4)c3c2)cc1 [Compound 194]
23,> 10,N#Cc1ccc(-c2ccc3nc(N[C@@H]4c5ccccc5C[C@@H]4O)cc(C(=O)N4CCC[C@H]4CN4CCCC4)c3c2)cc1 [Compound 209]
24,1 to 10,CCN(CC)C[C@@H]1CCCN1C(=O)c1cc(NCc2ccccc2)nc2ccc(-c3ccc4c(c3)OCO4)cc12 [Compound 81]
25,1 to 10,Clc1cc(N2CCC[C@H]2CN2CCCC2)nc2ccc(-c3ccc4c(c3)OCO4)cc12 [Compound 101]
26,> 10,N#Cc1cncc(-c2ccc3nc(NCc4ccc(C(F)(F)F)cc4)cc(C(=O)N4CCC[C@H]4CN4CCCC4)c3c2)c1 [Compound 339]
